Measured values published in patent publication US20260184707A1, “PHARMACEUTICAL COMPOUNDS FOR THE TREATMENT OF COMPLEMENT MEDIATED DISORDERS” (ALEXION PHARMACEUTICALS, INC., priority 2022, published 2026).

Molecular target: T1, Human complement C1s enzyme (Homo sapiens, UniProt P09871)
T1 construct: purified from human serum, Complement Technology, Inc; purchased Complement Technology, Inc; host or cells: human serum (plasma-derived native protein)
T1 sequence (P09871 438-688 limits assumed): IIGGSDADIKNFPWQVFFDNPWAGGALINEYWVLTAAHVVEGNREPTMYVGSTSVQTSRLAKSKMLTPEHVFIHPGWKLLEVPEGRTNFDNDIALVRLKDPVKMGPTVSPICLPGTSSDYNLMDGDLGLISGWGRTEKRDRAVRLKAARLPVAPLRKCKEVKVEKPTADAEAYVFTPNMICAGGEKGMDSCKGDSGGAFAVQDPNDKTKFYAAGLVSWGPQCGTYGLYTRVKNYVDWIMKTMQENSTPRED
T1 sequence (P09871 16-437 partner limits assumed): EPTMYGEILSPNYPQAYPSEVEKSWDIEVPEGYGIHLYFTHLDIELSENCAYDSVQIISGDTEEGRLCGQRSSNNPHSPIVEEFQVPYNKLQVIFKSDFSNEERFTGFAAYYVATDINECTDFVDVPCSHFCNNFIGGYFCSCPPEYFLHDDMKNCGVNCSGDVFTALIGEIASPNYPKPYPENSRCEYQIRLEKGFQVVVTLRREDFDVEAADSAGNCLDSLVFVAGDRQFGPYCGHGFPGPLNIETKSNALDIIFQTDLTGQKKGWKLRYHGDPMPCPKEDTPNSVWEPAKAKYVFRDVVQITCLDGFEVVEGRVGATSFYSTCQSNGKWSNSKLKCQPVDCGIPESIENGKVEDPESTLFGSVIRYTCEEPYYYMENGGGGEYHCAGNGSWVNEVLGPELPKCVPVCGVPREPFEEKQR
Experiment: Human C1s enzyme assay
Type: biochemical
Details: human complement C1s enzyme 1.16 nM, substrate Z-L-Lys-SBzl, A405; read-out: IC50 (Stars)
In short: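 Serum-purified human C1s (1.16 nM final) preincubated 5 min at room temperature with compound in 50 mM Tris, 1 M NaCl, pH 7.5. Z-L-Lys-SBzl and DTNB added at 100 μM each; A405 recorded every 30 s. IC50 from nonlinear regression of reaction rates versus compound concentration.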

Row | SMILES | IC50
1 | O=C(Cc1cc(NCCCc2ccccc2)cnc1-c1ccccc1)NCc1cc2cnccc2[nH]1 [Compound 207, N-((1H-pyrrolo[3,2-c]pyridine-2-yl)methyl)-2-(2-phenyl-5-((3-phenylpropyl)amino)146yridine-3-yl)acetamide] | > 1000 nM
2 | O=C(Cn1c(-c2ccccc2)ncc(NC(=O)c2nc(-c3ccccc3)cs2)c1=O)NCc1cc2cnccc2[nH]1 [Compound 208, N-(1-(2-(((1H-pyrrolo[3,2-c]pyridin-2-yl)methyl)amino)-2-oxoethyl)-6-oxo-2-phenyl-1,6-dihydropyrimidin-5-yl)-4-phen-ylthiazole-2-carboxamide] | < 100 nM
3 | O=C(Cn1c(-c2ccccc2)ncc(NC(=O)c2csc(-c3ccccc3)n2)c1=O)NCc1cc2cnccc2[nH]1 [Compound 209, N-(1-(2-(((1H-pyrrolo[3,2-c]pyridin-2-yl)methyl)amino)-2-oxoethyl)-6-oxo-2-phenyl-1,6-dihydropyrimidin-5-yl)-2-phen-ylthiazole-4-carboxamide] | < 100 nM
4 | O=C(Cn1c(-c2ccccc2)ncc(NC(=O)c2cc(-c3ccccc3)cs2)c1=O)NCc1cc2cnccc2[nH]1 [Compound 210, N-(1-(2-(((1H-pyrrolo[3,2-c]pyridin-2-yl)methyl)amino)-2-oxoethyl)-6-oxo-2-phenyl-1,6-dihydropyrimidin-5-yl)-4-phen-ylthiophene-2-carboxamide] | < 100 nM
5 | COc1cccc(-c2nc(C(=O)Nc3cnc(-c4ccccc4)n(CC(=O)NCc4cc5cnccc5[nH]4)c3=O)co2)c1 [Compound 211, N-(1-(2-(((1H-pyrrolo[3,2-c]pyridine-2-yl)methyl)amino)-2-oxoethyl)-6-oxo-2-phenyl-1,6-dihydropyrimidin-5-yl)-2-(3-methoxyphenyl)oxazole-4-carboxamide] | < 100 nM
6 | O=C(Cn1c(-c2ccccc2)ncc(Nc2ccc(F)cc2)c1=O)NCc1cc2cnccc2[nH]1 [Compound 212, N-((1H-pyrrolo[3,2-c]pyridin-2-yl)methyl)-2-(5-((4-fluoro-phenyl)amino)-6-oxo-2-phen-ylpyrimidin-1(6H)-yl)acet-amide] | < 100 nM
7 | COc1ccccc1-c1ccc(C(=O)Nc2cnc(-c3ccccc3)n(CC(=O)NCc3cc4cnccc4[nH]3)c2=O)cc1 [Compound 213, N-(1-(2-(((1H-pyrrolo[3,2-c]pyridin-2-yl)methyl)amino)-2-oxoethyl)-6-oxo-2-phenyl-1,6-dihydropyrimidin-5-yl)-2′-methoxy-[1,1′-biphenyl]-4-carboxamide] | < 100 nM
8 | O=C(Cn1c(-c2ccccc2)ncc(NC(=O)c2ccc(-c3ccccc3F)cc2)c1=O)NCc1cc2cnccc2[nH]1 [Compound 214, N-(1-(2-(((1H-pyrrolo[3,2-c]pyridin-2-yl)methyl)amino)-2-oxoethyl)-6-oxo-2-phenyl-1,6-dihydropyrimidin-5-yl)-2′-fluoro-[1,1′-biphenyl]-4-carboxamide] | < 100 nM
9 | O=C(Cn1c(-c2ccccc2)ncc(NC(=O)c2ccc(Oc3ccccc3)s2)c1=O)NCc1cc2cnccc2[nH]1 [Compound 215, N-(1-(2-(((1H-pyrrolo[3,2-c]pyridine-2-yl)methyl)amino)-2-oxoethyl)-6-oxo-2-phenyl-1,6-dihydropyrimidin-5-yl)-5-phenoxythiophene-2-carboxamide] | < 100 nM
10 | O=C(Cn1c(-c2ccc(N3CCOCC3)cc2)ncc(NCc2ccc3oc4ccccc4c3c2)c1=O)NCc1cc2cnccc2[nH]1 [Compound 216, N-((1H-pyrrolo[3,2-c]pyridin-2-yl)methyl)-2-(5-((dibenzo [b,d]furan-2-ylmethyl)amino)-2-(4-morpholinophenyl)-6-oxo-pyrimidin-1(6H)-yl)acetamide] | < 100 nM
11 | COc1cccc(-c2ccc(C(=O)Nc3cnc(-c4ccccc4)n(CC(=O)NCc4cc5cnccc5[nH]4)c3=O)cc2F)c1 [Compound 217, N-(1-(2-(((1H-pyrrolo[3,2-c]pyridine-2-yl)methyl)amino)-2-oxoethyl)-6-oxo-2-phenyl-1,6-dihydropyrimidin-5-yl)-2-fluoro-3′-methoxy-[1,1′-biphenyl]-4-carboxamide] | < 100 nM
12 | O=C(Cn1c(-c2ccccc2)ncc(NC(=O)c2csc(-c3ccccc3)c2)c1=O)NCc1cc2cnccc2[nH]1 [Compound 218, N-(1-(2-(((1H-pyrrolo[3,2-c]pyridin-2-yl)methyl)amino)-2-oxoethyl)-6-oxo-2-phenyl-1,6-dihydropyrimidin-5-yl)-5-phen-ylthiophene-3-carboxamide] | < 100 nM
13 | O=C(Cn1c(-c2ccccc2)ncc(NC(=O)c2noc(-c3ccccc3)n2)c1=O)NCc1cc2cnccc2[nH]1 [Compound 219, N-(1-(2-(((1H-pyrrolo[3,2-c]pyridine-2-yl)methyl)amino)-2-oxoethyl)-6-oxo-2-phenyl-1,6-dihydropyrimidin-5-yl)-5-phenyl-1,2,4-oxadiazole-3-carboxamide] | < 100 nM
14 | O=C(Cn1c(-c2ccccc2)ncc(NC(=O)c2ccc(-c3ccccc3)s2)c1=O)Nc1nccs1 [Compound 220, N-(6-oxo-1-(2-oxo-2-(thiazol-2-ylamino)ethyl)-2-phenyl-1,6-dihydropyrimidin-5-yl)-5-phen-ylthiophene-2-carboxamide] | < 100 nM
15 | O=C(Cn1c(-c2ccccc2)ncc(NC(=O)c2n[nH]c(-c3ccccc3)n2)c1=O)NCc1cc2cnccc2[nH]1 [Compound 221, N-(1-(2-(((1H-pyrrolo[3,2-c]pyridine-2-yl)methyl)amino)-2-oxoethyl)-6-oxo-2-phenyl-1,6-dihydropyrimidin-5-yl)-5-phenyl-1H-1,2,4-triazole-3-carboxamide] | < 100 nM

More lines, now with the values ahead:

Row | IC50 | SMILES
16 | > 1000 nM | O=C(Cn1c(-c2ccccc2)ncc(NC(=O)c2cccc(-c3ncco3)c2)c1=O)NCc1cc2cnccc2[nH]1 [Compound 222, N-(1-(2-(((1H-pyrrolo[3,2-c]pyridine-2-yl)methyl)amino)-2-oxoethyl)-6-oxo-2-phenyl-1,6-dihydropyrimidin-5-yl)-3-(oxazol-2-yl)benzamide]
17 | < 100 nM | O=C(Cn1c(-c2ccccc2)ncc(NC(=O)c2nnc(-c3ccccc3)o2)c1=O)NCc1cc2cnccc2[nH]1 [Compound 223, N-(1-(2-(((1H-pyrrolo[3,2-c]pyridine-2-yl)methyl)amino)-2-oxoethyl)-6-oxo-2-phenyl-1,6-dihydropyrimidin-5-yl)-5-phenyl-1,3,4-oxadiazole-2-carboxamide]
18 | 100 to 1000 nM | O=C(Cn1c(-c2ccccc2)ncc(Nc2ccc(-c3ccccc3)cc2)c1=O)NCc1cc2cnccc2[nH]1 [Compound 224, N-((1H-pyrrolo[3,2-c]pyridin-2-yl)methyl)-2-(5-([1,1′-biphenyl]-4-ylamino)-6-oxo-2-phenylpyrimidin-1(6H)-yl)-acetamide]
19 | < 100 nM | O=C(Cn1c(-c2ccc(OCc3ccccn3)cc2)ncc(NC(=O)c2ccc(-c3ccccc3)cc2)c1=O)NCc1cc2cnccc2[nH]1 [Compound 225, N-[6-Oxo-1-[2-oxo-2-(1H-pyrrolo[3,2-c]pyridine-2-ylmethylamino)ethyl]-2-[4-(2-pyridylmethoxy)phenyl]pyrimidin-5-yl]-4-phenyl-benzamide]
20 | < 100 nM | O=C(Cn1c(-c2ccc(F)c(F)c2)ncc(NC(=O)c2ccc(-c3ccccc3)cc2)c1=O)NCc1cc2cnccc2[nH]1 [Compound 226, N-(1-(2-(((1H-pyrrolo[3,2-c]pyridin-2-yl)methyl)amino)-2-oxoethyl)-2-(3,4-difluorophen-yl)-6-oxo-1,6-dihydropyrimi-din-5-yl)-[1,1′-biphenyl]-4-carboxamide]
21 | < 100 nM | O=C(Cn1c(-c2ccccc2)ncc(NC(=O)c2csc(-c3cccs3)n2)c1=O)NCc1cc2cnccc2[nH]1 [Compound 227, N-(1-(2-(((1H-pyrrolo[3,2-c]pyridin-2-yl)methyl)amino)-2-oxoethyl)-6-oxo-2-phenyl-1,6-dihydropyrimidin-5-yl)-2-(thiophen-2-yl)thiazole-4-carboxamide]
22 | < 100 nM | O=C(Cn1c(-c2ccccc2)ncc(Nc2ccc(Oc3ccccc3)cc2)c1=O)NCc1cc2cnccc2[nH]1 [Compound 228, N-((1H-pyrrolo[3,2-c]pyridin-2-yl)methyl)-2-(6-oxo-5-((4-phenoxyphenyl)amino)-2-phenylpyrimidin-1(6H)-yl)-acetamide]
23 | < 100 nM | C[C@@H](Nc1cnc(-c2cccc(F)c2)n(CC(=O)NCc2cc3cnccc3[nH]2)c1=O)c1ccc2oc3ccccc3c2c1 [Compound 229, (R)-N-((1H-pyrrolo[3,2-c]pyr-idin-2-yl)methyl)-2-(5-((1-(dibenzo[b,d]furan-2-yl)ethyl)-amino)-2-(3-fluorophenyl)-6-oxopyrimidin-1(6H)-yl)acet-amide]
24 | < 100 nM | C[C@@H](Nc1cnc(-c2ccc(S(C)(=O)=O)cc2)n(CC(=O)NCc2cc3cnccc3[nH]2)c1=O)c1ccc2oc3ccccc3c2c1 [Compound 230, (R)-N-((1H-pyrrolo[3,2-c]pyr-idin-2-yl)methyl)-2-(5-((1-(dibenzo[b,d]furan-2-yl)ethyl)-amino)-2-(4-(methylsulfonyl)-phenyl)-6-oxopyrimidin-1(6H)-yl)acetamide]
